Molecular target: GPR17 (Homo sapiens, UniProt Q13304)
Test: Calcium mobilization functional assay (GPR17 Ca2+ assay)
Assay type: cell-based
Parameters: host or cells: Flp-In T-REx CHO
Conditions: CHO hGPR17 cells, inhibition of 50 nM MDL29,951, Calcium 5 dye, FLIPR; read-out: Ca2+ assay pIC50 (converted)
Procedure: Flp-In T-REx CHO cells stably expressing human GPR17 receptor (CHO hGPR17) from Evi Kostenis' lab (Bonn University, Germany) were cultured at 37° C. in a humidified atmosphere of 5% CO2. Cells were grown in DMEM with Nutrient Mixture F-12 supplemented with hygromycin B (500 μg/mL) and blasticidin (30 μg/mL). Expression from the Flp-In locus was induced by treatment with doxycycline (1 μg/mL) for 16-20 h prior assays.
GPR17 is a G-protein coupled receptor. GPR17 activation triggers Gq-type G-protein signaling resulting in endoplasmic reticulum calcium (Ca^2+) stores release in cytosol which can be measured using Calcium 5 dye, a fluorescent indicator dye of cytosolic Ca^2+ levels. All Examples were tested in GPR17 Ca^2+ assay to determine (screen) their GPR17 modulating activity.
CHO hGPR17 were defrosted and seeded at a density of 20,000 cells per well into black 384-well plates with clear bottom. Cells were incubated overnight at 37° C. in a humidified atmosphere of 5% CO2. Sixteen to twenty hours after seeding, CHO hGPR17 were loaded for 60 min with Calcium 5 dye, a cytosolic Ca^2+ indicator fluorescent dye, according to manufacturer's instructions. Fluorescent signal relative to cytosolic Ca^2+ concentration was recorded over time at room temperature in FLIPR Tetra reader. […] Then, 50 nM MDL29,951, a GPR17 agonist, was added to the cells. Inhibitory effects of varying concentrations test compounds were measured and resulting plC50s were determined. […] Analysis and curve fitting were performed in ActivityBase XE using XLfit 4-parameter logistic equation y=A+((B−A)/(1+((C/x)^D))) where A, B, C and D stand for minimum y, maximum y, IC50 and slope, respectively.
The activities of the Example compounds tested are depicted in the table in Section B2B below. The activity ranges A, B and C refer to plC50 values in the Ca^2+ assay as follows: “A”: plC50<7.5, “B”: plC50 7.5<x≤ 8.5, “C”: plC50>8.5

Sequence of GPR17 (Q13304 whole entry): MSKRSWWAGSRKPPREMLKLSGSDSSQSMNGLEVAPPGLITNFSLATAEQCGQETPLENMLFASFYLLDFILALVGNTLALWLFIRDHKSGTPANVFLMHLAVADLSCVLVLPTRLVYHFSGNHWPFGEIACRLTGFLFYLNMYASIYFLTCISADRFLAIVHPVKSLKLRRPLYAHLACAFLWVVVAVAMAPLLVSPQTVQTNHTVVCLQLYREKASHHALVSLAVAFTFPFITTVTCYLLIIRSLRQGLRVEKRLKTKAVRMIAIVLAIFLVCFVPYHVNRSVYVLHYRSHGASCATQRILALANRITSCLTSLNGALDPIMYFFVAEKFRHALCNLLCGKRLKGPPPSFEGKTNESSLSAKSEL

Structure (SMILES) | IC50 [nM]
O=S(=O)(Nc1ccc(F)cn1)c1c[nH]c2cc(Cl)ccc12 [Compound I-62, 6-chloro-N-(5-fluoropyriidn-2-yl)-1H-indole-3-sulfonamide] | > 31.6
O=S(=O)(Nc1ccc(Cl)cc1F)c1c[nH]c2cc3c(cc12)OCO3 [Compound I-43, N-(4-chloro-2-fluorophenyl)-5H-[1,3]dioxolo[4,5-f]indole-7-sulfonamide] | > 31.6
Cc1cc2c(S(=O)(=O)Nc3cc(F)ccc3F)c[nH]c2cc1Br [Compound I-27, 6-bromo-N-(2,5-difluorophenyl)-5-methyl-1H-indole-3-sulfonamide] | > 31.6
COC(=O)c1ccc(NS(=O)(=O)c2c[nH]c3cc(Cl)ccc23)cc1 [Compound I-6, methyl 4-{[(6-chloro-1H-indol-3-yl)sulfonyl]amino}benzoate] | > 31.6
O=S(=O)(Nc1cc(F)cc(F)c1)c1c[nH]c2nc(Br)ccc12 [Compound I-89, 6-bromo-N-(3,5-difluorophenyl)-1H-pyrrolo[2,3-b]pyridine-3-sulfonamide] | > 31.6
O=S(=O)(Nc1cccc(F)c1Cl)c1c[nH]c2cc(Cl)ccc12 [Compound I-23, 6-chloro-N-(2-chloro-3-fluorophenyl)-1H-indole-3-sulfonamide] | > 31.6
O=S(=O)(Nc1cc(F)c(F)cc1F)c1c[nH]c2cc(C(F)(F)F)ccc12 [Compound I-54, 6-(trifluoromethyl)-N-(2,4,5-trifluorophenyl)-1H-indole-3-sulfonamide] | > 31.6
C#Cc1ccc(NS(=O)(=O)c2c[nH]c3cc(S(C)(=O)=O)ccc23)cc1 [Compound I-34, N-(4-ethynylphenyl)-6-(methylsulfonyl)-1H-indole-3-sulfonamide] | > 31.6
CS(=O)(=O)c1ccc2c(S(=O)(=O)Nc3cccc4c3OCO4)c[nH]c2c1 [Compound I-33, N-(1,3-benzodioxol-4-yl)-6-(methylsulfonyl)-1H-indole-3-sulfonamide] | > 31.6
Cc1ccc2c(S(=O)(=O)Nc3cccc4c3OCO4)c[nH]c2c1 [Compound I-29, N-(1,3-benzodioxol-4-yl)-6-methyl-1H-indole-3-sulfonamide] | > 31.6
Cc1ccc(NS(=O)(=O)c2c[nH]c3cc(Cl)ccc23)cc1F [Compound I-7, 6-chloro-N-(3-fluoro-4-methylphenyl)-1H-indole-3-sulfonamide] | > 31.6
O=S(=O)(Nc1cccc2nsnc12)c1c[nH]c2c3c(ccc12)CCC3 [Compound I-74] | > 31.6
O=S(=O)(Nc1cc(F)ccc1F)c1c[nH]c2cc(F)ccc12 [Compound I-37, N-(2,5-difluorophenyl)-6-fluoro-1H-indole-3-sulfonamide] | > 31.6
C#Cc1ccc(NS(=O)(=O)c2c[nH]c3nc(Cl)ccc23)cc1 [Compound I-84, 6-chloro-N-(4-ethynylphenyl)-1H-pyrrolo[2,3-b]pyridine-3-sulfonamide] | > 31.6
O=S(=O)(Nc1ccccc1Cl)c1c[nH]c2cc(Cl)ccc12 [Compound I-26, 6-chloro-N-(2-chlorophenyl)-1H-indole-3-sulfonamide] | > 31.6
O=S(=O)(Nc1cc(Cl)cc(Cl)n1)c1c[nH]c2cc(Cl)ccc12 [Compound I-40, 6-chloro-N-(4,6-dichloropyridin-2-yl)-1H-indole-3-sulfonamide] | > 31.6
N#Cc1ccc(NS(=O)(=O)c2c[nH]c3ccc(I)cc23)cc1 [Compound I-15, N-(4-cyanophenyl)-5-iodo-1H-indole-3-sulfonamide] | > 31.6
O=S(=O)(Nc1ccc(F)cc1F)c1c[nH]c2nc(Cl)ccc12 [Compound I-86, 6-chloro-N-(2,4-difluorophenyl)-1H-pyrrolo[2,3-b]pyridine-3-sulfonamide] | > 31.6
N#Cc1ccc(NS(=O)(=O)c2c[nH]c3ncc(Cl)cc23)cc1 [Compound I-77, 5-chloro-N-(4-cyanophenyl)-1H-pyrrolo[2,3-b]pyridine-3-sulfonamide] | > 31.6
N#Cc1ccc(NS(=O)(=O)c2c[nH]c3cc(Cl)ccc23)nc1 [Compound I-61, 6-chloro-N-(5-cyanopyridin-2-yl)-1H-indole-3-sulfonamide] | > 31.6
COc1cccc(NS(=O)(=O)c2c[nH]c3cc(Cl)ccc23)n1 [Compound I-58, 6-chloro-N-(6-methoxypyridin-2-yl)-1H-indole-3-sulfonamide] | > 31.6

Continued, values first:

IC50 [nM] | Structure (SMILES)
3.16 to 31.6 | N#Cc1cc(F)c(NS(=O)(=O)c2c[nH]c3nc(Cl)ccc23)cc1F [Compound I-176, 6-chloro-N-(4-cyano-2,5-difluorophenyl)-1H-pyrrolo[2,3-b]pyridine-3-sulfonamide]
> 31.6 | N#Cc1cc(F)c(NS(=O)(=O)c2c[nH]c3cc(F)cc(F)c23)cc1F [Compound I-164, N-(4-cyano-2,5-difluorophenyl)-4,6-difluoro-1H-indole-3-sulfonamide]
> 31.6 | Cc1ccc(NS(=O)(=O)c2c[nH]c3c2ccc2ccccc23)c(F)c1 [Compound I-121, N-(2-fluoro-4-methylphenyl)-1H-benzo[g]indole-3-sulfonamide]
> 31.6 | N#Cc1ccc(NS(=O)(=O)c2c[nH]c3cc(-c4ccncc4)ccc23)c(F)c1 [Compound I-231, N-(4-cyano-2-fluorophenyl)-6-(pyridin-4-yl)-1H-indole-3-sulfonamide]
> 31.6 | N#Cc1cc(F)c(NS(=O)(=O)c2c[nH]c3c(Cl)cccc23)cc1F [Compound I-117, 7-chloro-N-(4-cyano-2,5-difluorophenyl)-1H-indole-3-sulfonamide]
> 31.6 | N#Cc1ccc(NS(=O)(=O)c2c[nH]c3ccccc23)c(F)c1 [Compound I-105, N-(4-cyano-2-fluorophenyl)-1H-indole-3-sulfonamide]
< 3.16 | COc1nc(NS(=O)(=O)c2c[nH]c3cc(Br)ccc23)c(F)cc1CC#N [Compound I-320, 6-bromo-N-[5-(cyanomethyl)-3-fluoro-6-methoxypyridin-2-yl]-1H-indole-3-sulfonamide]
3.16 to 31.6 | N#Cc1ccc(NS(=O)(=O)c2c[nH]c3c4c(ccc23)CCC4)cc1F [Compound I-149, N-(4-cyano-3-fluorophenyl)-1,6,7,8-tetrahydrocyclopenta[g]indole-3-sulfonamide]
> 31.6 | O=S(=O)(Nc1ccc(C(F)(F)F)cn1)c1c[nH]c2cc(Cl)ccc12 [Compound I-211, 6-chloro-N-[5-(trifluoromethyl)pyridin-2-yl]-1H-indole-3-sulfonamide]
> 31.6 | O=S(=O)(Nc1cccc2nsnc12)c1c[nH]c2ccccc12 [Compound I-106, N-(2,1,3-benzothiadiazol-4-yl)-1H-indole-3-sulfonamide]
> 31.6 | COc1cccc2c(S(=O)(=O)Nc3ccc(C#N)cc3F)c[nH]c12 [Compound I-115, N-(4-cyano-2-fluorophenyl)-7-methoxy-1H-indole-3-sulfonamide]
> 31.6 | O=S(=O)(Nc1ccc(Br)cc1)c1c[nH]c2cc(Cl)ccc12 [Compound I-218, N-(4-bromophenyl)-6-chloro-1H-indole-3-sulfonamide]
> 31.6 | O=S(=O)(Nc1c(F)ccc2nsnc12)c1c[nH]c2cc(Cl)ccc12 [Compound I-131, 6-chloro-N-(5-fluoro-2,1,3-benzothiadiazol-4-yl)-1H-indole-3-sulfonamide]
> 31.6 | O=S(=O)(Nc1ccc(F)c2nonc12)c1c[nH]c2cc(Cl)ccc12 [Compound I-197, 6-chloro-N-(7-fluoro-2,1,3-benzoxadiazol-4-yl)-1H-indole-3-sulfonamide]
3.16 to 31.6 | O=S(=O)(Nc1cccc2c1OC(F)(F)O2)c1c[nH]c2nc(Br)ccc12 [Compound I-102, 6-bromo-N-(2,2-difluoro-1,3-benzodioxol-4-yl)-1H-pyrrolo[2,3-b]pyridine-3-sulfonamide]
3.16 to 31.6 | O=S(=O)(Nc1cc2nsnc2cc1F)c1c[nH]c2cc(F)ccc12 [Compound I-172, 6-fluoro-N-(6-fluoro-2,1,3-benzothiadiazol-5-yl)-1H-indole-3-sulfonamide]
> 31.6 | O=S(=O)(Nc1cc(F)c(F)cc1F)c1c[nH]c2ncc(I)cc12 [Compound I-103, 5-iodo-N-(2,4,5-trifluorophenyl)-1H-pyrrolo[2,3-b]pyridine-3-sulfonamide]
> 31.6 | O=S(=O)(Nc1ncccc1F)c1c[nH]c2cc(Cl)ccc12 [Compound I-128, 6-chloro-N-(3-fluoropyridin-2-yl)-1H-indole-3-sulfonamide]
> 31.6 | COc1c(Cl)ccc2c(S(=O)(=O)Nc3cc(F)c(F)cc3F)c[nH]c12 [Compound I-196, 6-chloro-7-methoxy-N-(2,4,5-trifluorophenyl)-1H-indole-3-sulfonamide]

Source: patent US12071404B2, “Aza (indole)-, benzothiophene-, and benzofuran-3-sulfonamides” (UCB Pharma GmbH, priority 2016, dated 2024)
